According to PubChem BioAssay (NCI):
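Assay format: 96-well plates, 48-hour exposure. TGI: concentration producing complete growth inhibition.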

Experiments:
Test in all cases: inhibition of tumour cell growth, NCI panel, 48 h
[1] = test system: OVCAR-4 ovarian
[2] = test system: SK-MEL-2 melanoma
[3] = test system: SF-539 CNS
[4] = test system: CAKI-1 renal
[5] = test system: LOX IMVI melanoma
[6] = test system: SK-MEL-28 melanoma
[7] = test system: RPMI-8226 leukemia
[8] = test system: SR leukemia
[9] = test system: DU-145 prostate
[10] = test system: BT-549 breast
[11] = test system: MCF7 breast
[12] = test system: T-47D breast
[13] = test system: PC-3 prostate

| SMILES | TGI [1] [µM] | TGI [2] [µM] | TGI [3] [µM] | TGI [4] [µM] | TGI [5] [µM] | TGI [6] [µM] | TGI [7] [µM] | TGI [8] [µM] | TGI [9] [µM] | TGI [10] [µM] | TGI [11] [µM] | TGI [12] [µM] | TGI [13] [µM] |
| --- | --- | --- | --- | --- | --- | --- | --- | --- | --- | --- | --- | --- | --- |
| O=C(Cc1csc(-c2nc(CC(=O)NNc3ccccc3)cs2)n1)NNc1ccccc1 | > 100 | > 100 | > 100 | > 100 | 43.7 | > 100 | > 100 | 53.6 |  |  |  |  |  |
| CCOC(=O)c1nc2ccccc2nc1Nc1ccc(OC)c(OC)c1 | > 100 | > 100 | > 100 | > 100 |  | > 100 | > 100 | > 100 | > 100 | > 100 | > 100 | > 100 |  |
| CCCCOC(=O)NC(Nc1cccc(C(F)(F)F)c1)(C(F)(F)F)C(F)(F)F | > 100 | 99.1 | > 100 | > 100 | > 100 | > 100 | 61.5 | 60.4 | > 100 |  | > 100 | 45.3 | > 100 |
| CC1(C)CC(=O)C2=C(C1)NC1=C(C(=O)CC(C)(C)C1)C2c1ccc([N+](=O)[O-])cc1 | > 100 | > 100 | > 100 | > 100 | > 100 | > 100 | > 100 |  | > 100 | > 100 | > 100 | > 100 | > 100 |
| COc1cc(C)cc2c1c(=O)c1ccccc1n2C | > 100 | 49.9 | 38.4 | > 100 | 53.6 | > 100 | 66 | 78.7 | > 100 | > 100 | > 100 |  | > 100 |
| CS(=O)(=O)c1c(N)c2nc(Cl)cn2c2nc3ccccc3nc12 | > 100 | > 100 | > 100 | > 100 | > 100 | > 100 | > 100 | > 100 |  |  |  |  |  |
| COc1cc(C=C2C(C)=NN(c3cccc(Cl)c3)C23C(Cl)C(=O)N3c2nc3ccccc3s2)ccc1O (configuration not stated) | > 100 | 36.3 | > 100 | 71.5 | 40.2 | > 100 | 30.5 | 17.2 | 48.7 |  | > 100 | > 100 | 30.4 |
| CCOC(=O)Cc1csc2[n+]1C(=O)/C(=C/c1cccc(OC)c1O)S2 | > 100 | > 100 | > 100 | > 100 | > 100 | > 100 |  |  | > 100 | 48.9 | > 100 | > 100 | > 100 |
| C[C@]12Cc3cnn(-c4ccc(F)cc4)c3NC1CC[C@@H]1C2CC[C@@]2(C)C1CC[C@@H]2O (some centres not stated) | 27.5 |  | 8.56 | 49.4 |  | 27.2 |  | 12.8 | 27.8 | 13.4 | 36.7 | 17 | 21.9 |
| CC(=O)c1ccc2c(ccc(=O)n2C)c1 | > 100 | > 100 | > 100 | > 100 | > 100 | > 100 | > 100 |  |  |  |  |  |  |
| Cc1ccc(C(=O)Nc2ccc(S(=O)(=O)O)c3cc(S(=O)(=O)O)cc(S(=O)(=O)O)c23)cc1NC(=S)Nc1cc(C(=O)Nc2ccc(S(=O)(=O)O)c3cc(S(=O)(=O)O)cc(S(=O)(=O)O)c23)ccc1C | > 75 | > 75 |  | > 75 | > 75 | > 75 | > 75 | > 75 | > 75 | > 75 | > 75 |  | > 75 |
| C/C1=C/C(C)CC(C)OC(=O)C(C)NC(=O)C(Cc2ccc(O)c(I)c2)N(C)C(=O)C(C)NC(=O)C(C)C1 (configuration not stated) |  | 5.67 | 1.61 |  | < 0.01 |  | 10.1 | 5.8 | > 58.1 | 0.737 | > 100 | 29.1 |  |
| O=C(Cc1csc(N=Nc2c(O)[nH]c3ccccc23)n1)Nc1ccccc1 | > 100 | > 100 | 79.4 | 53.4 | > 100 | 46.5 |  |  | 91.5 | > 100 | > 100 | > 100 |  |
| CCN1C[C@]2(C)CC[C@H](OC)C34C1C([C@H](OC(C)=O)[C@@H]32)[C@@]1(OC)C[C@H](OC)[C@H]2C[C@@H]4[C@@H]1[C@H]2O | > 100 | > 100 | > 100 | > 100 | > 100 | > 100 | > 100 |  |  |  |  |  |  |
| CN(C)CC1COC2Cc3ccccc3C1O2 (configuration not stated) | > 100 | > 100 | > 100 | > 100 | > 100 | > 100 | > 100 | > 100 | > 100 |  | > 100 | > 100 | > 100 |
| CCOC(=O)Cc1csc2[n+]1C(=O)/C(=C\c1cccc(Cl)c1Cl)S2 | 42.3 | 36.7 | 47.1 | 48.7 | 42.2 | 50.9 |  |  | 46.3 | 49 | > 100 |  | 37.7 |
| NC(=O)c1coc(C2OC(CO)C(O)C2O)n1 (configuration not stated) | > 100 | > 100 | > 100 |  | > 100 | > 100 | > 100 | > 100 |  |  |  |  |  |
| N#CC(C#N)=C(N)/C(C#N)=C/c1ccc2ccccc2n1 | > 100 | > 100 |  | 65.1 | 46 | 43.2 | > 100 |  | > 100 | 91.1 | > 100 | > 100 | 79.4 |
| CCOC(=O)c1c(C)cc(=O)n2c1[nH]c1ccccc12 |  | > 100 | > 100 | 50.9 | > 100 | > 100 |  |  | > 100 | > 100 | > 100 | > 100 | > 100 |
| CCCC(=O)O[C@H]1C=C2C[C@@]34SS[C@]5(CC6=C[C@H](OC(C)=O)[C@@H]7O[C@@H]7[C@H]6N5C3=O)C(=O)N4[C@@H]2[C@H]2O[C@H]21 | 0.887 | 0.296 | 0.932 | 1.09 | 0.131 | 0.235 | 2.29 | 50 | 0.362 |  | 0.226 | 0.605 | 0.0611 |

| SMILES | TGI [1] [µM] | TGI [2] [µM] | TGI [3] [µM] | TGI [4] [µM] | TGI [5] [µM] | TGI [6] [µM] | TGI [7] [µM] | TGI [8] [µM] | TGI [9] [µM] | TGI [10] [µM] | TGI [11] [µM] | TGI [12] [µM] | TGI [13] [µM] |
| --- | --- | --- | --- | --- | --- | --- | --- | --- | --- | --- | --- | --- | --- |
| COc1ccc(/C=C2\CCC(C)/C(=C\c3ccc(OC)c(OC)c3)C2=O)cc1OC (configuration not stated) |  | 25.3 | 13.8 | 21.6 | 19.2 | 48.1 | 8.01 |  | 21 | 20.3 | 22.3 | 28.2 | 23.4 |
| CCN(CC)CCCC(C)Nc1ccnc2ccc3nn(C)nc3c12 (configuration not stated) |  |  | > 100 | > 100 | 41.1 |  | > 100 | > 100 |  |  |  |  |  |
| Clc1ccccc1C1=NN(c2ccccc2)C2c3ccccc3OCC12 (configuration not stated) |  | > 100 |  |  | > 100 | > 100 | > 100 |  |  |  |  |  |  |
| C/C=C\C(CC(=O)NCCC1CN(S(=O)(=O)C(F)(F)F)c2ccccc21)CC(=O)OC (configuration not stated) | > 100 | 94 |  | > 100 |  | > 100 | > 100 | > 100 | > 100 | 67.1 | > 100 |  | > 100 |
| c1ccc(C2=NOC3(c4ccccc4)SC4CCCCC4CN23)cc1 (configuration not stated) | > 100 | > 100 | 39.2 | 63.8 | 34 | > 100 | 95.4 | > 100 |  |  |  |  |  |
| NC(=O)NC(=O)c1cccc(CNc2ccc(C(=O)N[C@@H](CCC(=O)O)C(=O)O)cc2)n1 | > 100 | > 100 | > 100 | > 100 | > 100 | > 100 | > 100 | > 100 | > 100 | > 100 | > 100 |  | > 100 |
| Cc1ccc(S(=O)(=O)N2C[C@](O)(c3ccccc3)[C@H]2C)cc1 | > 100 | > 100 | > 100 | > 100 | > 100 | > 100 |  |  | > 100 |  | > 100 | > 100 | > 100 |
| CCCCc1ccc(Nc2nc(=S)c3[nH]cnc3[nH]2)cc1 | 76.4 | 52.1 | 48 | 92.6 | 31.7 | > 100 | 90.4 |  | > 100 | 39 |  | 49.3 | > 100 |
| CN(C)/N=C(/c1nc2ccc([N+](=O)[O-])cc2[nH]c1=O)C(O)c1ccco1 (configuration not stated) | > 100 |  | > 100 | > 100 | > 100 | > 100 | > 100 | > 100 |  |  |  |  |  |
| C=C(C)CC1(O)C(=O)C(OCC)=C1OCC (configuration not stated) | > 100 | > 100 | > 100 | > 100 | > 100 | > 100 |  |  | > 100 | > 100 | > 100 | > 100 | > 100 |
| O=c1[nH]c2cc([N+](=O)[O-])ccc2nc1/C(=N/Nc1ccccc1)C(O)c1ccc(C(O)/C(=N\Nc2ccccc2)c2cnc3cc([N+](=O)[O-])ccc3n2)cc1 (configuration not stated) | > 100 | > 100 | > 100 | > 100 |  | > 100 | > 100 | > 100 |  |  |  |  |  |
| CN(CCO)c1nc(N)cc(=O)[nH]1 |  | > 100 | > 100 | > 100 | > 100 | > 100 | > 100 | > 100 |  |  |  |  |  |
| Cc1ccc2c(sc(-c3ccc4c(c3)sc(-c3ccc5c(c3)sc(-c3ccc(N(C)C)cc3)[n+]5C)[n+]4C)[n+]2C)c1S(=O)(=O)O (tested in a mixture with another compound) | > 100 | > 100 | > 100 |  | > 100 | > 100 | > 100 |  | > 100 | > 100 | > 100 | > 100 | > 100 |
| CCN(CC)CCN1C(=O)c2c(c(-c3ccccc3)c3ccccc3c2-c2ccccc2)C1=O | > 100 | > 100 | > 100 | > 100 | > 100 |  | > 100 |  |  | > 100 | > 100 |  | > 100 |
| COc1ccc(C2Oc3cc(OC)c(O)c(C)c3[C@H]2C)cc1 (some centres not stated) | > 100 | > 100 | > 100 | > 100 | > 100 | > 100 |  |  |  |  |  |  |  |
| Cc1ccc(N=N/C(=N/NC(=O)c2cc(Cl)ccc2C(=O)c2ccccc2)c2ccc(N(CCC#N)CCC#N)cc2C)cc1 | 82.4 | 28.2 |  | 79.3 |  | > 100 | 96.9 |  | 51.8 | > 100 | 15.2 | 27.9 | 47.2 |
| Cc1cc(S(=O)(=O)/N=C(\[N-]S(=O)(=O)c2ccc(Cl)cc2)[n+]2ccc(N(C)C)cc2)c(S)cc1Cl | > 100 | > 100 | > 100 | > 100 | > 100 | > 100 | > 100 | 3.13 | > 100 |  | > 100 | > 100 | > 100 |
| COc1cc(/C=C2/SC(c3ccccc3)N(c3ccccc3)C2=O)cc(OC)c1OC (configuration not stated) | > 100 | > 100 | > 100 | > 100 | > 100 | > 100 | 66.6 | > 100 | > 100 | > 100 | > 100 | > 100 |  |
| O=C(Nc1nn(C(=O)c2ccc(Cl)cc2)c(=O)s1)c1ccc(Cl)cc1 | > 100 |  |  | > 100 | > 100 | > 100 |  | > 100 | > 100 | > 100 | > 100 | > 100 | > 100 |
| O=C(/C=C1\C[C@H]2C=Nc3ccccc3C(=O)N2C1)NCCCCNC(=O)/C=C1\C[C@H]2C=Nc3ccccc3C(=O)N2C1 | 26.1 | 29.2 | 30.5 | 6.4 | 6.35 | 33.3 | 18.6 |  | 29.7 | 26.1 | 35.1 | 22.3 | 27.7 |
